From PubChem BioAssay AID248 (DTP/NCI, 2004)
Where “and” joins values, the source holds several entries; their conditions need not be identical. Equal values may be shown once. Toxic doses and inconclusive results are not listed. No stated cut-off is given here; in the data, active means T/C of 150% or more; inactive means T/C below 125%.

Test system: L1210 leukemia ip in BDF1 mice, survival T/C
Experiment: NCI In Vivo Anticancer Drug Screen. Data for tumor model L1210 Leukemia (intraperitoneal) in B6D2F1 (BDF1) mice
Conditions: endpoint: mean survival time, higher = longer survival
Outline: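 Survival endpoint. Drug-treated group vs vehicle group, expressed as T divided by C. Tumor passaged by transplantation.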

[1] = dose: 100.0 mg/kg/injection, schedule: Q04DX003 (ip), vehicle: other
[2] = dose: 200.0 mg/kg/injection, schedule: Q04DX003 (ip), vehicle: other
[3] = dose: 400.0 mg/kg/injection, schedule: Q04DX003 (ip), vehicle: other
[4] = dose: 100.0 mg/kg/injection, schedule: Q04DX003 (ip), vehicle: Klucel (hydroxypropylcellulose) (HPC)
[5] = dose: 100.0 mg/kg/injection, schedule: Q01DX009 (ip), vehicle: saline with Tween-80
[6] = dose: 25.0 mg/kg/injection, schedule: Q04DX003 (ip), vehicle: Klucel (hydroxypropylcellulose) (HPC)
[7] = dose: 50.0 mg/kg/injection, schedule: Q04DX003 (ip), vehicle: Klucel (hydroxypropylcellulose) (HPC)
[8] = dose: 100.0 mg/kg/injection, schedule: Q01DX001 (ip), vehicle: saline
[9] = dose: 200.0 mg/kg/injection, schedule: Q01DX001 (ip), vehicle: saline
[10] = dose: 400.0 mg/kg/injection, schedule: Q01DX001 (ip), vehicle: saline
[11] = dose: 100.0 mg/kg/injection, schedule: Q04DX003 (ip), vehicle: saline with Tween-80
[12] = dose: 200.0 mg/kg/injection, schedule: Q04DX003 (ip), vehicle: saline with Tween-80
[13] = dose: 400.0 mg/kg/injection, schedule: Q04DX003 (ip), vehicle: saline with Tween-80

Measured: T/C

O=C(O)COc1ccc(Cl)cc1Cl (tested in a mixture with another compound)
inactive: dose: 25.0 mg/kg/injection, schedule: Q04DX003 (ip), vehicle: saline 102 % of control | dose: 50.0 mg/kg/injection, schedule: Q04DX003 (ip), vehicle: saline 98 % of control | dose: 100.0 mg/kg/injection, schedule: Q01DX001 (ip), vehicle: carboxymethylcellulose (CMC) 93 % of control | [1] 90 % of control | [2] 95 % of control | [3] 115 % of control

Nc1cc2oc3ccccc3c2c2cccnc12
inactive: dose: 100.0 mg/kg/injection, schedule: Q01DX001 (ip), vehicle: Klucel (hydroxypropylcellulose) (HPC) 103 % of control | [4] 106 % of control | dose: 200.0 mg/kg/injection, schedule: Q01DX001 (ip), vehicle: Klucel (hydroxypropylcellulose) (HPC) 100 % of control | dose: 200.0 mg/kg/injection, schedule: Q04DX003 (ip), vehicle: Klucel (hydroxypropylcellulose) (HPC) 103 % of control | dose: 400.0 mg/kg/injection, schedule: Q01DX001 (ip), vehicle: Klucel (hydroxypropylcellulose) (HPC) 91 % of control | dose: 400.0 mg/kg/injection, schedule: Q04DX003 (ip), vehicle: Klucel (hydroxypropylcellulose) (HPC) 103 % of control

C=C(CCC(C(=O)O)C1CCC2(C)C3=C(CCC12C)C1(C)CCC(O)C(C)(C)C1CC3)C(C)C (configuration not stated)
inactive: [5] 91 % of control | dose: 200.0 mg/kg/injection, schedule: Q01DX009 (ip), vehicle: saline with Tween-80 87 % of control | dose: 400.0 mg/kg/injection, schedule: Q01DX009 (ip), vehicle: saline with Tween-80 94 % of control

NC(=O)C(c1ccccc1)N1CCCCC1 (configuration not stated)
inactive: dose: 25.0 mg/kg/injection, schedule: Q01DX009 (ip), vehicle: Klucel (hydroxypropylcellulose) (HPC) 87 % of control | [6] 96 % of control | dose: 50.0 mg/kg/injection, schedule: Q01DX009 (ip), vehicle: Klucel (hydroxypropylcellulose) (HPC) 96 % of control | [7] 100 % of control | dose: 100.0 mg/kg/injection, schedule: Q01DX009 (ip), vehicle: Klucel (hydroxypropylcellulose) (HPC) 97 % of control | [4] 92 % of control and 90 % of control

C1Cc2c3c4c(c5c2C(C1)CCC5)CCCC4CCC3
inactive: [8] 97 % of control | [9] 94 % of control | [10] 91 % of control

CCCCCCC(C)O[Si](C)Cc1ccccc1 (configuration not stated)
inactive: [1] 95 % of control | [2] 97 % of control | [3] 94 % of control

CCN(CC)C(=O)Nc1ccc(O)c(C(=O)O)c1
inactive: [8] 98 % of control | [9] 95 % of control | [10] 96 % of control

O=C(O)c1cc2ccccc2o1
inactive: dose: 50.0 mg/kg/injection, schedule: Q01DX009 (ip), vehicle: saline with Tween-80 90 % of control | [5] 97 % of control

Cn1cc(Br)c2ccccc2c1=O
inactive: [6] 87 % of control | [7] 101 % of control | [4] 94 % of control and 124 % of control

Cc1cc(C(=O)O)c(C)cc1C(=O)O
inactive: [11] 98 % of control | [12] 93 % of control | [13] 98 % of control

O=C(OCC(O)C1OC(c2ccccc2)OC1C(O)COC(=O)c1ccccc1)c1ccccc1 (configuration not stated)
inactive: dose: 50.0 mg/kg/injection, schedule: Q04DX003 (ip), vehicle: saline with Tween-80 102 % of control | [11] 92 % of control and 91 % of control | [12] 105 % of control | [13] 89 % of control

CCCCC(=O)N/N=C/c1ccccc1[N+](=O)[O-]
inactive: dose: 200.0 mg/kg/injection, schedule: Q01DX001 (ip), vehicle: carboxymethylcellulose (CMC) 95 % of control | dose: 400.0 mg/kg/injection, schedule: Q01DX001 (ip), vehicle: carboxymethylcellulose (CMC) 90 % of control

Cn1c(=O)c2c(nc(CCCCCCCc3nc4c(c(=O)n(C)c(=O)n4C)n3C)n2C)n(C)c1=O
inactive: [8] 98 % of control | [9] 98 % of control | [10] 98 % of control
